Laboratory results: paper PMC7802073, “Small Molecule Inhibitors of the Bacterioferritin (BfrB)–Ferredoxin (Bfd) Complex Kill Biofilm-Embedded Pseudomonas aeruginosa Cells” (ACS Infectious Diseases, 2020)
Values joined by “and” are separate entries in the source; they are usually repeats but may differ in a detail not shown here. Identical values can stand only once.

Legend:
Assay type in all cases: cell-based, Pseudomonas aeruginosa
[1] = test system: Pellicles of P. aeruginosa PAO1 expressing EYFP; test: Pellicle biofilm assay, CLSM imaging and COMSTAT viable biomass; conditions: 24 h, approximately 1.2× IC50 (KM-5-25 80 μM, KM-5-66 50 μM)
Protocol: Pellicle biofilms of EYFP-expressing P. aeruginosa PAO1 or clinical isolates were grown in PI media supplemented with 20 μM Fe. Starter cultures were diluted to OD600 = 0.001 in 4 mL media, placed in 35 × 10 mm Petri dishes and incubated statically at 30 °C for 48 h. The pellicles were transferred onto circular (1.5 cm diameter) glass coverslips by gently allowing the surface of a coverslip to contact a pellicle. The pellicle-adhered coverslip was washed in PBS and then deposited on top of 1.5 mL AB challenge media contained in a well of a 12-well microplate, with the pellicle exposed to the media. […] The coverslip-adhered pellicles were exposed to challenge media at 30 °C for 24 h, changing the challenge media every 12 h by transferring the pellicle-adhered coverslip to a new plate containing prewarmed challenge media.
Excess fluorescent dye was washed with PBS, the coverslip was mounted on a glass slide using 5 μL SlowFade (Invitrogen Life Technologies) and the edges sealed with fingernail polish. CLSM image stacks (z-step size of 0.3 μm) were acquired with the aid of a Leica TCS SP8 microscope, as described above. Quantitative analysis was performed by determination of pellicle biomass using COMSTAT[55] and the Otsu method of automatic thresholding.[86]

[2] = test system: EYFP-expressing P. aeruginosa PAO1 pellicles; test: Viable cells (CFU/mL) dispersed from pellicle biofilms; conditions: 24 h; for viable cell count relative to the untreated pellicle (% cell survival): KM-5-25 40 μM (0.6× IC50) or KM-5-66 20 μM (0.5× IC50)
Protocol: Pellicle biofilms were grown as described above. Planktonic and loosely attached cells were washed (3 times) by immersing the coverslip-adhered pellicles (biofilm facing up) into a well of a 12-well plate containing 3 mL PBS, and incubating (5 min) with gentle rocking. To remove the pellicle from the coverslip, break the extracellular matrix and release cells from the biofilm, the coverslip-adhered pellicle was placed in a 50 mL conical tube containing a 2 mL suspension of zirconia beads (0.1 mm diameter, BioSpec Products), 10 mL PBS, 0.2 μg/mL alginate lyase and 0.2 μg/mL DNase. The resultant mixture was incubated at room temperature for 3 min, followed by vigorous vortexing for 4 min. After sedimentation of the zirconia beads, a 100 μL aliquot was used for serial dilution and plating on PIA plates for subsequent enumeration of viable cells (CFU/mL).

[3] = test system: P. aeruginosa clinical isolate PA_1076058; test: Viable cells (CFU/mL) dispersed from pellicle biofilms of a clinical isolate; conditions: PA_1076058 pellicles, 24 h, 1.2× IC50 (KM-5-25 80 μM, KM-5-66 50 μM)
Protocol: (§1) Pellicle biofilms were grown as described above.

[4] = test system: P. aeruginosa clinical isolate PA_1081725; test: as above; conditions: PA_1081725 pellicles, 24 h, 1.2× IC50 (KM-5-25 80 μM, KM-5-66 50 μM)
Protocol: as §1

[5] = test system: iron stored in BfrB in pellicle-embedded P. aeruginosa PAO1 cells; test: Iron stored in BfrB, native PAGE stained with Ferene S, densitometry; conditions: 2-day old pellicles, 24 h, KM-5-25 40 μM or KM-5-66 20 μM
[6] = test system: P. aeruginosa PAO1 cells dispersed from pellicles; test: Total intracellular iron in biofilm-embedded cells; conditions: 2-day old pellicles, 24 h, KM-5-25 40 μM or KM-5-66 20 μM
Protocol: Pellicle biofilms were grown for 48 h as described above. The pellicles were transferred onto square (2 × 2 cm) glass coverslips by gently contacting the pellicle with the coverslip. […] After the zirconia beads had sedimented, a 100 μL aliquot was sampled from the cell suspension for plating and enumeration of viable cells and a 14 mL sample was used to harvest the cells by centrifugation (20 min, 400 rpm). The cell pellet was resuspended in 1 mL PBS, transferred to a 1.5 mL microcentrifuge tube, centrifuged for 10 min at 12 500 rpm at 4 °C and the cell pellet frozen at −80 °C. The frozen cells were subjected to three freeze–thaw cycles and then lysed by addition of 200 μL of lysis buffer (50 mM Tris-HCl buffer (pH 8.0) containing 10% (v/v) glycerol, 20 mg/mL lysozyme, 0.2 mg/mL DNase, 0.1 M NaCl, 1 mM MgSO4 and 1% (v/v) Triton-X100) and incubated at ambient temperature (30 min) and at 37 °C (30 min). […] Levels of total intracellular iron were determined as reported previously:[23],[87] […] The iron concentration was measured from the absorbance of the Fe^2+–Ferene S complex (ε593 = 34.5 mM^–1 cm^–1),[88] normalized by the viable cell counts and reported as Fe atoms per cell.

[7] = 2-day old pellicles, 1.2× IC50 (KM-5-25 80 μM, KM-5-66 50 μM)
[8] = compound at 1.2× IC50 combined with colistin 25× MIC (20 μM)
[9] = compound at 1.2× IC50 combined with colistin 25× MIC
[10] = compound at 1.2× IC50 combined with colistin 50× MIC (40 μM)
[11] = compound at 1.2× IC50 combined with colistin 50× MIC
[12] = compound at 1.2× IC50 combined with tobramycin 25× MIC (27 μM)
[13] = compound at 1.2× IC50 combined with tobramycin 25× MIC
[14] = compound at 1.2× IC50 combined with tobramycin 50× MIC

Compound | cells in the pellicle killed (COMSTAT) [1] | % survival relative to cells in the pretreated biofilm ([2]; 2-day old pellicles, 0.6× IC50) | % survival relative to cells in the pretreated biofilm [2, 7] | viable cell count relative to the untreated pellicle (% cell survival) ([2]; 2-day old pellicles) | % survival, combination treatment [2, 8] | reduction of viable cells relative to treatment with colistin alone [2, 9] | % survival, combination treatment [2, 10] | reduction of viable cells relative to treatment with colistin alone [2, 11] | % survival, combination treatment [2, 12] | reduction of viable cells relative to treatment with tobramycin alone [2, 13] | % survival, combination treatment [2, 14] | reduction of viable cells relative to treatment with tobramycin alone [2, 14] | reduction of viable cells [3] | reduction of viable cells [4] | iron in BfrB relative to cells in untreated pellicles (Ferene S band peak area) [5] | total intracellular iron normalized to viable cell counts, relative to untreated biofilms [6] | % survival relative to cells in the pellicles prior to treatment ([2]; 2-day old pellicles, 0.3× IC50)
O=C1NC(=O)c2c(NCc3cc(Cl)ccc3O)cccc21 [KM-5-25, 4-((5-Chloro-2-hydroxybenzyl)amino)isoindoline-1,3-dione] | ~85% | ~38% | ~25% | 42% and 42.5% | ~1% | ~1 log | ~0.5% | ~0.7 log | ~0.5% | approximately 2.5 log | ~0.003% | ~4.7 log | approximately 80% | approximately 80% | ~3 fold | ~2.5 fold | 
O=C1NC(=O)c2c(NCCCc3cc(O)cc(Cl)c3)cccc21 [KM-5-66, 4-((3-(3-Chloro-5-hydroxyphenyl)propyl)amino)isoindoline-1,3-dione] | ~85% | ~21% | ~15% | 37% and 37.2% | ~0.3% | approximately 1.7 log | ~0.02% | ~1.9 log | 5% | approximately 1.5 log | 1% | ~2 log | approximately 80% | approximately 80% | ~3 fold | ~2.5 fold | approximately 57%
